Experimental data as given in US4929736A, “Latent isocynate derivatives useful for deactivating enzymes” (Board of Trustees of the Wichita State University, priority 1986, dated 1990).
Entries after “also recorded” stand apart in the source; their conditions may differ. Like-named read-outs stand apart in the source and are kept apart here.

Target: T1, Human leukocyte elastase (HLE) (Homo sapiens, UniProt P08246)
T1 construct: purchased Elastin Products, St. Louis, Mo
T1 sequence (P08246 30-267): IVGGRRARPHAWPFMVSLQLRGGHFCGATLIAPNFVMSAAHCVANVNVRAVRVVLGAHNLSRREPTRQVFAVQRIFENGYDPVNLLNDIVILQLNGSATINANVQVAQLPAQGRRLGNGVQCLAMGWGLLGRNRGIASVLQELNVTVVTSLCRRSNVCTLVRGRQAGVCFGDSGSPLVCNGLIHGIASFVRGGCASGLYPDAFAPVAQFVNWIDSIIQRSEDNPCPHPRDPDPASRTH
Assay: Spectrophotometric assay of HLE inactivation (in vitro)
Format: biochemical
Description: The appropriate amount of inhibitor in acetonitrile was mixed with PPE in phosphate buffer solution and placed in a constant temperature bath. Aliquots were withdrawn at different time intervals and transferred to a cuvette containing 100 uL of substrate, 140 uL of acetonitrile, and 2 mL of phosphate buffer, pH 6.5. After incubating for 30 seconds, the absorbance change was monitored for two minutes at 347.5 nm. […] Controlled reactions for 100% PPE activity were run in the presence of acetonitrile. A similar procedure was followed for HLE.
The reaction of an irreversible inhibitor with PPE and HLE may be illustrated by the scheme shown below: [drawing 5] where EI is the noncovalently bound enzyme-inactivator complex and E-I is the final product with the inhibitor covalently bound to the enzyme. The kinetics data were analyzed according to known procedures. The apparent pseudo-first-order inactivation rate constants were determined from the slopes of semilogarithmic plots of enzymatic activity remaining versus time using the following equation: [formula] where Et /EO is the amount of active enzyme remaining after time "t".
The assay procedure used was the procedure identified relative to the tests above in Table I.
(kobsd) were determined by plotting in [E]t /[E]o vs time.

[1] = Table V, succinimide derivatives, read-out: kobsd /[I], inhibition of leukocyte elastase
[2] = Table V, succinimide derivatives
[3] = Table III, inactive: no inhibition at 243fold excess of inhibitor over enzyme, 10min incubation
[4] = Table II monopotassium sulfonate salts
[5] = Table VI, sulfur-containing amino acid esters
[6] = Table II monopotassium sulfonate salts, read-out: k2 /Ki (HLE)
[7] = Table VI, sulfur-containing amino acid esters, read-out: kobsd /[I], inhibition of HLE
[8] = Table III, inactive: no inhibition at 243fold excess of inhibitor over enzyme, 10min incubation, read-out: kobsd /[I], inhibition of leukocyte elastase
[9] = Table IV, derivatives of phenylalanine, read-out: kobsd /[I], inhibition of leukocyte elastase

For `O=C1CC(Cc2ccccc2)C(=O)N1OS(=O)(=O)c1ccccc1` (stereo not drawn), the kinact/KI [1] was 1170 M⁻¹ s⁻¹.

In the case of `O=C1CC(Cc2ccccc2)C(=O)N1OS(=O)(=O)c1ccc(Br)cc1` (stereo not drawn), the kinact/KI [1] was 1650 M⁻¹ s⁻¹.

Work on `Cc1ccc(S(=O)(=O)ON2C(=O)CC(Cc3ccccc3)C2=O)cc1` (stereo not drawn) yielded a kinact/KI [1] of 1610 M⁻¹ s⁻¹.

For `Cc1ccc(S(=O)(=O)ON2C(=O)CCC2=O)cc1`, the “kobsd /[I], inhibition of leukocyte elastase” value [2] was “inactive”.

For `CCCCS(=O)(=O)ON1C(=O)CC(Cc2ccccc2)C1=O` (stereo not drawn) [BENZYL, OSO2(CH2)3 CH3], the kinact/KI [1] was 1680 M⁻¹ s⁻¹.

Work on `CCCCCCCCS(=O)(=O)ON1C(=O)CC(Cc2ccccc2)C1=O` (stereo not drawn) [BENZYL, OSO2(CH2)7 CH3] yielded a kinact/KI [1] of 1270 M⁻¹ s⁻¹.

`CN(C)S(=O)(=O)ON1C(=O)CC(Cc2ccccc2)C1=O` (stereo not drawn) [BENZYL, OSO2N(CH3)2] was tested, and the kinact/KI [1] was 323 M⁻¹ s⁻¹.

For `O=C(Nc1ccccc1)S(=O)(=O)O` [Compound 1, Table III], the “kobsd /[I], inhibition of leukocyte elastase” value [3] was “inactive”.

In the case of `COC(=O)CNC(=O)S(=O)(=O)O` [Compound 1, Table II], the “Inhibition of HLE (in words)” value was “devoid of any inhibitory activity” and the “k2 /Ki (HLE)” value [4] was “inactive”.

With `O=C(Nc1cccc(Cl)c1)S(=O)(=O)O` [Compound 2, Table III] the “kobsd /[I], inhibition of leukocyte elastase” value [3] was “inactive”.

`COC(=O)[C@H](C)NC(=O)S(=O)(=O)O` [Compound 2, Table II] was tested, and the “Inhibition of HLE (in words)” value was “devoid of any inhibitory activity” and the “k2 /Ki (HLE)” value [4] was “inactive”.

With `COC(=O)[C@H](CC[S+](C)[O-])NC(=O)S(=O)(=O)O` (stereo partly drawn) [Compound 2, Table VI] the “Inhibition of HLE (in words)” value was “inactive” and the “kobsd /[I], inhibition of HLE” value [5] was “inactive”.

`O=C(Nc1ccc(Cl)cc1)S(=O)(=O)O` [Compound 3, Table III] was tested, and the “kobsd /[I], inhibition of leukocyte elastase” value [3] was “inactive”.

In the case of `COC(=O)[C@@H](NC(=O)S(=O)(=O)O)C(C)C` [Compound 3, Table II], the kinact/KI [6] was 800 M⁻¹ s⁻¹ and the “Inhibition of HLE (in words)” value (listed as L-valine sulfonate salt) was “very potent inhibitors; also recorded: effective inhibitors”.

With `O=C(Nc1cccc(F)c1)S(=O)(=O)O` [Compound 4, Table III] the “kobsd /[I], inhibition of leukocyte elastase” value [3] was “inactive”.

For `CC[S+]([O-])C[C@H](NC(=O)S(=O)(=O)O)C(=O)OC` (stereo partly drawn) [Compound 4, Table VI], the “Inhibition of HLE (in words)” value was “inactive” and the “kobsd /[I], inhibition of HLE” value [5] was “inactive”.

For `O=C(Nc1ccccc1C(F)(F)F)S(=O)(=O)O` [Compound 5, Table III], the “kobsd /[I], inhibition of leukocyte elastase” value [3] was “inactive”.

With `CCC[C@@H](NC(=O)S(=O)(=O)O)C(=O)OC` [Compound 5, Table II] the “Inhibition of HLE (in words)” value was “no inhibitory activity” and the “k2 /Ki (HLE)” value [4] was “inactive”.

In the case of `COC(=O)[C@H](CSC)NC(=O)S(=O)(=O)O` [Compound 5, Table VI], the kinact/KI [7] was 1510 M⁻¹ s⁻¹.

For `O=C(Nc1cccc(C(F)(F)F)c1)S(=O)(=O)O` [Compound 6, Table III], the “kobsd /[I], inhibition of leukocyte elastase” value [3] was “inactive”.

With `CCCC[C@H](NC(=O)S(=O)(=O)O)C(=O)OC` [Compound 6, Table II] the kinact/KI [6] was 920 M⁻¹ s⁻¹ and the “Inhibition of HLE (in words)” value (listed as L-norleucine sulfonate salt) was “very potent inhibitors; also recorded: effective inhibitors”.

In the case of `COC(=O)[C@H](CSCc1ccccc1)NC(=O)S(=O)(=O)O` [Compound 6, Table VI], the “kobsd /[I], inhibition of HLE” value [5] was “inactive”.

For `O=C(Nc1ccc(C(F)(F)F)cc1)S(=O)(=O)O` [Compound 7, Table III], the “kobsd /[I], inhibition of leukocyte elastase” value [3] was “inactive”.

With `COC(=O)[C@H](CC(C)C)NC(=O)S(=O)(=O)O` [Compound 7, Table II] the kinact/KI [6] was 260 M⁻¹ s⁻¹ and the “Inhibition of HLE (in words)” value (listed as L-leucine sulfonate salt) was “also deactivate HLE but were not as effective; also recorded: also inactivate HLE, but not as efficiently; also recorded: effective inhibitors”.

For `COC(=O)[C@H](CSSC[C@H](NC(=O)S(=O)(=O)O)C(=O)OC)NC(=O)S(=O)(=O)O` [Compound 7, Table VI], the “kobsd /[I], inhibition of HLE” value [5] was “inactive”.

For `O=C(Nc1cccc(F)c1)n1ccnc1` [Compound 8, Table III], the “kobsd /[I], inhibition of leukocyte elastase” value [3] was “inactive”.

`COC(=O)[C@H](CCSC)NC(=O)S(=O)(=O)O` [Compound 8, Table II] was tested, and the kinact/KI [6] was 260 M⁻¹ s⁻¹ and the “Inhibition of HLE (in words)” value (listed as L-methionine sulfonate salt) was “also deactivate HLE but were not as effective; also recorded: also inactivate HLE, but not as efficiently; also recorded: effective inhibitors”.

`COC(=O)CSC[C@H](NC(=O)S(=O)(=O)O)C(=O)OC` [Compound 8, Table VI] was tested, and the kinact/KI [7] was 17 M⁻¹ s⁻¹.

With `COC(=O)[C@H](Cc1ccccc1)NC(=O)S(=O)(=O)[O-].[K+]` [Compound 9, Table II, N-(Sulfocarbonyl)-L-phenylalanine Methyl Ester, Monopotassium Salt] the kinact/KI [6] was 530 M⁻¹ s⁻¹ and the “Inhibition of HLE (in words)” value (listed as L-phenylalanine sulfonate salt, Monopotassium Salt) was “also deactivate HLE but were not as effective; also recorded: also inactivate HLE, but not as efficiently; also recorded: effective inhibitors”.

For `O=C(Nc1ccccc1C(F)(F)F)n1ccnc1` [Compound 9, Table III], the “kobsd /[I], inhibition of leukocyte elastase” value [3] was “inactive”.

`COC(=O)[C@H](CSC)NC(=O)n1ccnc1` [Compound 9, Table VI] was tested, and the kinact/KI [7] was 4050 M⁻¹ s⁻¹.

`O=C(Nc1cccc(C(F)(F)F)c1)n1ccnc1` [Compound 10, Table III] was tested, and the “kobsd /[I], inhibition of leukocyte elastase” value [3] was “inactive”.

Work on `CCSC[C@H](NC(=O)n1ccnc1)C(=O)OC` [Compound 10, Table VI] yielded a kinact/KI [7] of 4230 M⁻¹ s⁻¹.

`O=C(NCc1ccc(C(F)(F)F)cc1)n1ccnc1` [Compound 11, Table III] was tested, and the “kobsd /[I], inhibition of leukocyte elastase” value [3] was “inactive”.

For `COC(=O)CSC[C@H](NC(=O)n1ccnc1)C(=O)OC` [Compound 11, Table VI], the kinact/KI [7] was 15 M⁻¹ s⁻¹.

`O=C(NCc1cccc(F)c1)S(=O)(=O)O` [Compound 12, Table III] was tested, and the “kobsd /[I], inhibition of leukocyte elastase” value [3] was “inactive”.

In the case of `O=C(NCc1cccc(C(F)(F)F)c1)S(=O)(=O)O` [Compound 13, Table III], the “kobsd /[I], inhibition of leukocyte elastase” value [3] was “inactive”.

For `O=C(NCc1cccc(F)c1)n1ccnc1` [Compound 14], the “kobsd /[I], inhibition of leukocyte elastase” value [3] was “inactive”.

For `O=C(NCc1cccc(C(F)(F)F)c1)n1ccnc1` [Compound 15], the “kobsd /[I], inhibition of leukocyte elastase” value [3] was “inactive”.

`O=C(NCCc1ccccc1)S(=O)(=O)O` [Compound 16] gave a kinact/KI [8] of 4 M⁻¹ s⁻¹.

In the case of `O=C(NCCc1cccc(F)c1)S(=O)(=O)O` [Compound 17, Table III], the kinact/KI [8] was 18 M⁻¹ s⁻¹.

Compound `O=C(NCCc1ccccc1)n1ccnc1` [Compound 18] has a kinact/KI [8] of 35 M⁻¹ s⁻¹.

For `O=C(NCCc1cccc(F)c1)n1ccnc1` [Compound 19], the kinact/KI [8] was 38 M⁻¹ s⁻¹.

Compound `O=C(NCCc1cccc(C(F)(F)F)c1)n1ccnc1` [Compound 20] has a kinact/KI [8] of 483 M⁻¹ s⁻¹.

For `O=C(NCCc1ccccc1)n1ccccc1=O` [Compound 21], the kinact/KI [8] was 500 M⁻¹ s⁻¹.

With `O=C(NCCc1cccc(F)c1)n1ccccc1=O` [Compound 22] the kinact/KI [8] was 317 M⁻¹ s⁻¹.

`O=C(NCCc1cccc(C(F)(F)F)c1)n1ccccc1=O` [Compound 23] gave a kinact/KI [8] of 11700 M⁻¹ s⁻¹.

`O=C(NCCc1ccccc1)ON1C(=O)CCC1=O` [Compound 24] was tested, and the kinact/KI [8] was 927 M⁻¹ s⁻¹.

`O=C(NCCc1cccc(F)c1)ON1C(=O)CCC1=O` [Compound 25] showed a kinact/KI [8] of 823 M⁻¹ s⁻¹.

`O=C(NCCc1cccc(C(F)(F)F)c1)ON1C(=O)CCC1=O` [Compound 26] showed a kinact/KI [8] of 13500 M⁻¹ s⁻¹.

For `COC(=O)[C@H](Cc1ccccc1)NC(=O)S(=O)(=O)O` [Compound 27], the kinact/KI [9] was 550 M⁻¹ s⁻¹.

With `COC(=O)[C@H](Cc1ccccc1)NC(=O)n1ccnc1` [Compound 28] the kinact/KI [9] was 2070 M⁻¹ s⁻¹.

For `COC(=O)[C@H](Cc1ccccc1)NC(=O)n1ccccc1=O` [Compound 29], the kinact/KI [9] was 2330 M⁻¹ s⁻¹.

`COC(=O)[C@H](Cc1ccccc1)NC(=O)ON1C(=O)CCC1=O` [Compound 30] showed a kinact/KI [9] of 6640 M⁻¹ s⁻¹.

With `COC(=O)C(Cc1cccc(F)c1)NC(=O)S(=O)(=O)O` (stereo not drawn) [Compound 31] the kinact/KI [9] was 57 M⁻¹ s⁻¹.

With `COC(=O)C(Cc1cccc(C(F)(F)F)c1)NC(=O)S(=O)(=O)O` (stereo not drawn) [Compound 32] the kinact/KI [9] was 13 M⁻¹ s⁻¹.

Work on `COC(=O)C(Cc1cccc(F)c1)NC(=O)n1ccnc1` (stereo not drawn) [Compound 33] yielded a kinact/KI [9] of 318 M⁻¹ s⁻¹.

For `COC(=O)C(Cc1cccc(C(F)(F)F)c1)NC(=O)n1ccnc1` (stereo not drawn) [Compound 34], the kinact/KI [9] was 1100 M⁻¹ s⁻¹.

`CS(=O)(=O)ON1C(=O)CCC1=O` [H, OSO2CH3] was tested, and the “kobsd /[I], inhibition of leukocyte elastase” value [2] was “inactive”.
